Assay results as given in patent US9133140B2, “Cycloalkylamne derivatives” (Daiichi Sankyo Company, Limited, priority 2008, dated 2015).
Where a name gives a salt, the structure may show the parent alone. Read-outs that look alike come from different tables or passages of the source.

Tests used:
[1] = biological target: T1, human CaSR (Homo sapiens, UniProt P41180); experiment: Human CaSR activity measurement test (intracellular calcium in TT cells); type: cell-based; details: [EC50 of test compound]/[EC50 of Compound A], intracellular calcium fluorescence
T1 construct: TT cells are cell lines that express human CaSR; endogenous in cells; host or cells: TT cells (human medullary thyroid carcinoma cell line)
T1 sequence (P41180 20-1078): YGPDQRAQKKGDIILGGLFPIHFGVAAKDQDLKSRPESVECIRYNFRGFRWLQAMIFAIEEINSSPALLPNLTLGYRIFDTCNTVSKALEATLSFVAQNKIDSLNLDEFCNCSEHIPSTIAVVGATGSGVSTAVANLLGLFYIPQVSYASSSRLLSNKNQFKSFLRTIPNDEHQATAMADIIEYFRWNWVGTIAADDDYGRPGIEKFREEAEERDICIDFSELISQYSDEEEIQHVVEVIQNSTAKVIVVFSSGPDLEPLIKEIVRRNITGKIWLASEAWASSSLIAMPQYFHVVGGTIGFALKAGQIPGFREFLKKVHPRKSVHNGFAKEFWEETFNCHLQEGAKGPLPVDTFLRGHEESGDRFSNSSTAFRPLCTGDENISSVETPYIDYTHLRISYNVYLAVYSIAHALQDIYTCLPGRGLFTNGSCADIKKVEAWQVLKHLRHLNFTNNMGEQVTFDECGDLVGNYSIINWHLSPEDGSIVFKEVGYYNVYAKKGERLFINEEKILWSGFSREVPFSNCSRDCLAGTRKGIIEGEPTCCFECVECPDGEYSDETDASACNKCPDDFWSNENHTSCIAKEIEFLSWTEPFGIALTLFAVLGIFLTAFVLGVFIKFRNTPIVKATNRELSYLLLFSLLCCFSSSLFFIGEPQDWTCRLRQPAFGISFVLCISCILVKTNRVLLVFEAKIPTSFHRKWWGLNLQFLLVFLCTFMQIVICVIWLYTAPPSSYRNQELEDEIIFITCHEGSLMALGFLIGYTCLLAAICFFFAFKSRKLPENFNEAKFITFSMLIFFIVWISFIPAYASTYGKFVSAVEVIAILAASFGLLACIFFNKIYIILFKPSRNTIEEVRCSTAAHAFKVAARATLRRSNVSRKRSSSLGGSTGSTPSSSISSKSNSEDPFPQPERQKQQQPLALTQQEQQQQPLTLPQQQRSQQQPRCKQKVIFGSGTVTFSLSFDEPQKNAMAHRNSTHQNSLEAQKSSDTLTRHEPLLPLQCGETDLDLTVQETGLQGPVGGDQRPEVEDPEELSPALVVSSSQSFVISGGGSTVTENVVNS
Method: It is reported that human medullary thyroid carcinoma cell lines TT cells are cell lines that express human CaSR, and when CaSR is activated by extracellular calcium ions or the like, intracellular calcium ion concentration increases (Endocrinology 137: 3842-3848, 1996). Accordingly, an activating action of the test compounds with respect to human CaSR was evaluated by using the change in intracellular calcium concentration of TT cells as an indicator. TT cells were inoculated onto a black well/clear bottom 96 well plate (poly-D-lysine coat: manufactured by BD biosciences), and were cultured for approximately 24 hours in a F-12 Nutrient Mixture (Kaighn's modification) culture media containing 10% calf serum and 0.5% antibiotic antimycotic. […] Then, the plate was allowed to stand for 1 hour at 37° C. Subsequently, the above-mentioned plate was placed onto FlexStation (manufactured by Molecular Device) or FlexStation 3 (manufactured by Molecular Device), and fluorescence intensity before and after treatment with the test compound dissolved in a buffer for measurement (126 mM NaCl, 4 mM KCl, 1 mM MgCl2, 20 mM HEPES (pH 7.4), 5.6 mM glucose, 2 mM CaCl2) was measured. […] Nagano, Pharmacol. […] WO 1996/12697) as a comparative compound, by conducting a similar procedure. From the following equation, the human CaSR activity of each of the test compounds was calculated as the relative activity with respect to Compound A. Relative activity with respect to Compound A=[EC50 of test compound]/[EC50 of Compound A]

[2] = test system: calcium ion concentration in the blood; experiment: Measurement test for concentration of parathyroid hormone and calcium ion in rat blood; type: in vivo; details: read-out: reduction of calcium concentration in the blood
Method: Three male SD rats (manufactured by Japan SLC, Inc.) were orally administered with the test compound, and effects on the concentration of parathyroid hormone (PTH) in the blood and concentration of the calcium ion in the blood were studied.
The test compound was administered by dissolving or suspending it in a 0.5% methyl cellulose 400 (MC) solution or 0.5% MC solution containing 10% of ethanol. (In addition, Compound A used in Test Example 1 was administered as a MC suspension by dosage of 30 mg/kg, and was studied as a comparative example.) Blood was collected from the jugular vein under anesthesia with halothane or isoflurane, before administration of the test compound, and 2, 4, 6 or 8 and 24 hours after administration. Calcium ion concentration in the blood was measured using cartridge EG7+(manufactured by Fuso Chemical Co., Ltd.) and i-STAT 300F (manufactured by Fuso Chemical Co., Ltd.). In addition, plasma intact PTH concentration was measured using Rat intact PTH ELISA kit (manufactured by Immutopics).
The transition of calcium ion concentration in the blood over time from before administration to 24 hours after administration of each of the test compounds was plotted, and the decrease in calcium ion concentration in the blood from the value before administration was calculated as an area value.

[3] = male SD rats, oral, 10 mg/kg, 4 hours after administration
[4] = male SD rats, oral, 4 hours after administration

Structure (SMILES) | Relative activity with respect to Compound A [1] | inhibition in vivo at 10 mg/kg [2, 3] | inhibition in vivo at 0.3 mg/kg [2, 4] | inhibition in vivo at 10 mg/kg ([2]; po, 4 h)
C[C@@H](N[C@H]1CC[C@@H](c2ccc(OC(C)(C)C(=O)O)cc2)C1)c1cccc2ccccc12 [Example 11, 2-Methyl-2-{4-[(1R,3S)-3-{[(1R)-1-(naphthalen-1-yl)ethyl]amino}cyclopentyl]phenoxy}propanoic acid hydrochloride] | 0.60 | ≥ 30% |  | 
C[C@@H](N[C@H]1CC[C@@H](c2ccc(OC(C)(C)C(=O)O)c(F)c2)C1)c1cccc2ccccc12 [Example 15, 2-{2-Fluoro-4-[(1R,3S)-3-{[(1R)-1-(naphthalen-1-yl)ethyl]amino}cyclopentyl]phenoxy}-2-methylpropanoic acid hydrochloride] | 0.38 | ≥ 30% |  | 
C[C@@H](N[C@H]1CC[C@@H](c2ccc(OCC(=O)O)cc2)C1)c1ccc(F)c2ccccc12 [Example 17, {4-[(1R,3S)-3-{[(1R)-1-(4-Fluoronaphthalen-1-yl)ethyl]amino}cyclopentyl]phenoxy}acetic acid] | 0.30 | ≥ 30% | ≥ 20% | 
C[C@@H](NC1CC[C@@H](c2ccc(OCC(=O)O)cc2)C1)c1cccc2cc(F)ccc12 (stereo partly drawn) [Example 21, {4-[(1R)-3-{[(1R)-1-(6-Fluoronaphthalen-1-yl)ethyl]amino}cyclopentyl]phenoxy}acetic acid] | 0.38 | ≥ 30% |  | 
C[C@@H](N[C@H]1CC[C@@H](c2cccc(CC(=O)O)c2)C1)c1ccc(F)c2ccccc12 [Example 24, {3-[(1R,3S)-3-{[(1R)-1-(4-Fluoronaphthalen-1-yl)ethyl]amino}cyclopentyl]phenyl}acetic acid hydrochloride] | 0.30 | ≥ 30% | ≥ 20% | 
C[C@@H](N[C@H]1CC[C@@H](c2ccc(CC(=O)O)cc2)C1)c1ccc(F)c2ccccc12 [Example 25, {4-[(1R,3S)-3-{[(1R)-1-(4-Fluoronaphthalen-1-yl)ethyl]amino}cyclopentyl]phenyl}acetic acid hydrochloride] | 0.34 | ≥ 30% | ≥ 20% | 
C[C@@H](N[C@H]1CC[C@@H](c2ccc(CCC(=O)O)cc2)C1)c1ccc(F)c2ccccc12 [Example 27, 3-{4-[(1R,3S)-3-{[(1R)-1-(4-Fluoronaphthalen-1-yl)ethyl]amino}cyclopentyl]phenyl}propanoic acid hydrochloride] | 0.59 |  | ≥ 20% | 
C[C@@H](N[C@H]1CC[C@H](c2ccc(OCC(=O)O)cc2)C1)c1ccc(F)c2ccccc12 [Example 28, {4-[(1S,3S)-3-{[(1R)-1-(4-Fluoronaphthalen-1-yl)ethyl]amino}cyclopentyl]phenoxy}acetic acid] | 0.17 |  | ≥ 20% | 
C[C@@H](N[C@H]1CC[C@H](c2ccc(CCC(=O)O)cc2)C1)c1ccc(F)c2ccccc12 [Example 30, 3-{4-[(1S,3S)-3-{[(1R)-1-(4-Fluoronaphthalen-1-yl)ethyl]amino}cyclopentyl]phenyl}propanoic acid hydrochloride] | 0.31 |  | ≥ 20% | 
C[C@@H](N[C@H]1CC[C@@H](c2ccc(OC(C)(C)C(=O)O)cc2)C1)c1ccc(F)c2ccccc12 [Example 31, 2-{4-[(1R,3S)-3-{[(1R)-1-(4-Fluoronaphthalen-1-yl)ethyl]amino}cyclopentyl]phenoxy}-2-methylpropanoic acid hydrochloride] | 0.36 | ≥ 30% | ≥ 20% | 
C[C@@H](N[C@H]1CC[C@@H](c2ccc(NCC(=O)O)cc2)C1)c1cccc2ccccc12 [Example 33, N-{4-[(1R,3S)-3-{[(1R)-1-(Naphthalen-1-yl)ethyl]amino}cyclopentyl]phenyl}glycine 0.4 hydrochloride] | 0.23 |  |  | ≥ 30%
C[C@@H](N[C@H]1CC[C@@H](c2ccc(NCCC(=O)O)cc2)C1)c1cccc2ccccc12 [Example 34, N-{4-[(1R,3S)-3-{[(1R)-1-(Naphthalen-1-yl)ethyl]amino}cyclopentyl]phenyl}-β-alanine 0.5 hydrochloride] | 0.26 |  |  | ≥ 30%
C[C@@H](N[C@H]1CC[C@@H](c2ccc(SCC(=O)O)cc2)C1)c1cccc2ccccc12 [Example 36, ({4-[(1R,3S)-3-{[(1R)-1-(Naphthalen-1-yl)ethyl]amino}cyclopentyl]phenyl}thio)acetic acid hydrochloride] | 0.15 | ≥ 30% |  | 
